Consider 1 substance from patent US20260263521A1, “ANTI-CD200R1 ANTIBODY AND USE THEREOF” (AIMED BIO INC., priority 2023, published 2026).

For the assay, the system named is Th1/Th2 cytokines in nasal polyp patient specimens. In words: Ex vivo cytokine inhibition in nasal polyp patient specimens (CBA). It is filed as cell-based, human. As to conditions: antibody drugs 100 nM; three DUPIXENT-resistant samples of 10; Th2 cytokines IL-5, IL-4. The procedure: The specimens were finely chopped and minced, and then additionally processed twice using the m_lung_02 protocol on a gentleMACS (Miltenyi Biotec) to obtain tissue fragments. After centrifugation at 1500 rpm for 3 minutes to ensure that all tissues formed a pellet, RPMI media+10% FBS was aliquoted in the pellet at a 1:3 ratio. The pellet was thoroughly mixed with the medium and dispensed into a 96-well u-bottom plate, 100 μl per well, in triplicate for each drug. To establish the screening assay, results were obtained first using dexamethasone (a steroid-based positive control drug), followed by treatment with the anti-CD200R1 antibody (P001009v1) and other drugs used for the corresponding disease. All antibody-based drugs were treated at 100 nM, while steroid drugs such as dexamethasone were treated at 20 μM.
After drug treatment, the cells were incubated at 37° C. for 1 hour. To increase overall cytokine levels, 4 μl of a 10-fold diluted cell stimulation cocktail 500× (Invitrogen #00-4970-03) was added on each well and mixed. After reaction for 24 hours at 37° C., the supernatant was collected by centrifugation. Using the human Th1/Th2 cytokine cytometric bead array (CBA) kit (BD, #550749), cytokine levels in the supernatant were measured and the degree of drug responsiveness of each sample was determined.

With “DUPIXENT®: drug used as a conventional therapeutic agent for atopic dermatitis and allergic diseases [reference compound]”, the “cytokine suppression in nasal polyp patient samples” value is “no suppression”.
